In paper PMC7486399 (Nature Communications, 2020):
Several values for one entry are separate records, joined by “and”; a condition that tells them apart may be missing. Equal entries are not always repeated.

What was measured:
[1] = tested on: A549 cells; type: cell-based, human
[2] = tested on: A549-ACE2 cells; type: cell-based, human
[3] = tested on: interaction between the S1 subunit and ACE2 receptor; test: AFM competition binding: ACE2-derived peptides vs S1 subunit-ACE2 binding on model surface; conditions: for binding probability (BP) with peptide (Fig. 4b) / reduction in the BP (S1-ACE2 complex formation): 250 ms contact time; for binding probability (BP) with peptide (Fig. 4b): mean, N ≥ 3, 0 µM BP: 22-44 10.8724, 22-57 8.6263, 22-44-g-351-357 10.6771, 351-357 8.65885, PEG tip 2.60417; for delta binding (change of binding probability, Fig. 4c): vs 0 µM; for decrease in the BP on purified receptor: AFM on purified ACE2 receptor; for 50% inhibitory concentration (IC50): S1-ACE2 binding by AFM, estimated from 1, 10, 100 µM; for reduction in the BP (S1-ACE2 complex formation): concentration not printed in the sentence (tested 1, 10, 100 µM)
[4] = tested on: mixed culture of A549 and A549-ACE2 cells; type: cell-based, human; conditions: AFM
[5] = tested on: A549 cells; test: AFM S1 binding probability on A549 cells before and after [22-57] peptide; type: cell-based, human; conditions: for BP (Fig. 5a), 100 μM peptide: A549 cells, 100 μM [22–57]
[6] = tested on: A549-ACE2 cells; test: AFM S1 binding probability on A549-ACE2 cells before and after [22-57] peptide; type: cell-based, human; conditions: for BP (Fig. 5a), 100 μM peptide: 100 μM [22–57]
[7] = 1 µM peptide, ddH2O control 27.2772
[8] = 10 µM peptide, ddH2O control -35.4337
[9] = 100 µM peptide, ddH2O control -21.9737

## 9-O-acetyl-2-α-O-propargyl-SC [SA]
[1]
  binding probability + SA (Fig. 3f): 4.4 and 4.6 and 7 and 7.2
[1]; A549 cells, 9-O-acetyl-sialogycans, 1 mM
  binding frequency after SA injection: ~ 7%
[2]
  binding probability + SA (Fig. 3f): 12.6 and 8.7 and 9 and 10.4
[2]; […], 9-O-acetyl-sialogycans, 1 mM
  binding frequency after SA injection: ≈ 10%

## [22–44]: ACE2-derived peptide fragment 22–44, N-terminal helix of ACE2 (sequence in Supplementary Fig. 9)
[3]; 1 µM peptide
  binding probability (BP) with peptide (Fig. 4b): 6.934
[3]; [7]
  delta binding (change of binding probability, Fig. 4c): -48.3738
[3]; 10 µM peptide
  binding probability (BP) with peptide (Fig. 4b): 4.232
[3]; [8]
  delta binding (change of binding probability, Fig. 4c): -79.2642
[3]; 100 µM peptide
  binding probability (BP) with peptide (Fig. 4b): 4.6224
[3]; [9]
  delta binding (change of binding probability, Fig. 4c): -75.9263
[3]
  decrease in the BP on purified receptor: > 70%
  50% inhibitory concentration (IC50): in the µM range
  reduction in the BP (S1-ACE2 complex formation): ~ 76%
[4]
  decrease in the BP on living cells: > 70%

## [22–44–g–351–357]: ACE2-derived fragments 22–44 and 351–357 joined by a glycine residue (EEQAKTFLDKFNHEAEDLFYQSSGLGKGDFR)
[3]; 1 µM peptide
  binding probability (BP) with peptide (Fig. 4b): 6.641
[3]; [7]
  delta binding (change of binding probability, Fig. 4c): -45.2583
[3]; 10 µM peptide
  binding probability (BP) with peptide (Fig. 4b): 4.915
[3]; [8]
  delta binding (change of binding probability, Fig. 4c): -63.4203
[3]; 100 µM peptide
  binding probability (BP) with peptide (Fig. 4b): 4.655
[3]; [9]
  delta binding (change of binding probability, Fig. 4c): -62.3402
[3]; compared with the other peptides
  binding inhibition, result in words: we did not notice any strong improvement in the binding inhibition

## [22–57]: ACE2-derived peptide fragment 22–57, N-terminal helix of ACE2 (sequence in Supplementary Fig. 9)
[5]; A549 cells (both cell types), 100 µM peptide
  change of BP after peptide injection: significant decrease of the BP on both cell types
[5]; replicate 1 (0 μM: 10.8)
  BP (Fig. 5a), 100 μM peptide: 4.3
[5]; replicate 2 (0 μM: 9.7)
  BP (Fig. 5a), 100 μM peptide: 4.1
[5]; replicate 3 (0 μM: 7.7)
  BP (Fig. 5a), 100 μM peptide: 1.9
[3]; 1 µM peptide
  binding probability (BP) with peptide (Fig. 4b): 6.706
[3]; [7]
  delta binding (change of binding probability, Fig. 4c): -31.3144
[3]; 10 µM peptide
  binding probability (BP) with peptide (Fig. 4b): 5.599
[3]; [8]
  delta binding (change of binding probability, Fig. 4c): -50.4102
[3]; 100 µM peptide
  binding probability (BP) with peptide (Fig. 4b): 4.167
[3]; [9]
  delta binding (change of binding probability, Fig. 4c): -74.5041
[3]
  decrease in the BP on purified receptor: > 70%
  50% inhibitory concentration (IC50): in the µM range
  reduction in the BP (S1-ACE2 complex formation): ~ 74%
[4]
  decrease in the BP on living cells: > 70%
[6]; replicate 1 (0 μM: 17)
  BP (Fig. 5a), 100 μM peptide: 9.7
[6]; replicate 2 (0 μM: 15.7)
  BP (Fig. 5a), 100 μM peptide: 8.5
[6]; replicate 3 (0 μM: 29)
  BP (Fig. 5a), 100 μM peptide: 4.4
[6]; replicate 4 (0 μM: 15.9)
  BP (Fig. 5a), 100 μM peptide: 10.1
[6]; 100 µM peptide
  BP level after peptide injection: reaching a level close to the one of the control cells

## [351–357]: ACE2-derived peptide fragment 351–357, part of a hot binding spot (LGKGDFR; UniProt Q9BYF1 351-357, looked up, fragment)
[3]; 1 µM peptide
  binding probability (BP) with peptide (Fig. 4b): 5.599
[3]; [7]
  delta binding (change of binding probability, Fig. 4c): -43.4556
[3]; 10 µM peptide
  binding probability (BP) with peptide (Fig. 4b): 6.3151
[3]; [8]
  delta binding (change of binding probability, Fig. 4c): -34.8403
[3]; 100 µM peptide
  binding probability (BP) with peptide (Fig. 4b): 5.339
[3]; [9]
  delta binding (change of binding probability, Fig. 4c): -54.9815

## cRGD
[1]; S1 tip on A549 cells after cRGD, 500 μM, 37 °C, individual data points
  binding probability + RGD (Fig. 3f): 13.1 and 7.8 and 10.6 and 9.5
[2]; A549-ACE2 cells, cRGD 500 μM
  reduction of the binding frequency after cRGD injection: 1–2%
[2]; S1 tip on A549-ACE2 cells after cRGD, 500 μM, 37 °C, individual data points
  binding probability + RGD (Fig. 3f): 14.1 and 9.9 and 20.6 and 14.7
